The values that follow are results of earlier work, collected in US12637520B2, “Conjugation chemistry for catalytic antibody 38C2” (UNIVERSITY OF FLORIDA RESEARCH FOUNDATION, INCORPORATED, priority 2019, dated 2026).

The target in the series is open conformation of integrin α4β1 (Homo sapiens, UniProt P05556+P13612). The settings on record: cited from earlier work.
open conformation of integrin α4β1, sequence (P13612 34-1032): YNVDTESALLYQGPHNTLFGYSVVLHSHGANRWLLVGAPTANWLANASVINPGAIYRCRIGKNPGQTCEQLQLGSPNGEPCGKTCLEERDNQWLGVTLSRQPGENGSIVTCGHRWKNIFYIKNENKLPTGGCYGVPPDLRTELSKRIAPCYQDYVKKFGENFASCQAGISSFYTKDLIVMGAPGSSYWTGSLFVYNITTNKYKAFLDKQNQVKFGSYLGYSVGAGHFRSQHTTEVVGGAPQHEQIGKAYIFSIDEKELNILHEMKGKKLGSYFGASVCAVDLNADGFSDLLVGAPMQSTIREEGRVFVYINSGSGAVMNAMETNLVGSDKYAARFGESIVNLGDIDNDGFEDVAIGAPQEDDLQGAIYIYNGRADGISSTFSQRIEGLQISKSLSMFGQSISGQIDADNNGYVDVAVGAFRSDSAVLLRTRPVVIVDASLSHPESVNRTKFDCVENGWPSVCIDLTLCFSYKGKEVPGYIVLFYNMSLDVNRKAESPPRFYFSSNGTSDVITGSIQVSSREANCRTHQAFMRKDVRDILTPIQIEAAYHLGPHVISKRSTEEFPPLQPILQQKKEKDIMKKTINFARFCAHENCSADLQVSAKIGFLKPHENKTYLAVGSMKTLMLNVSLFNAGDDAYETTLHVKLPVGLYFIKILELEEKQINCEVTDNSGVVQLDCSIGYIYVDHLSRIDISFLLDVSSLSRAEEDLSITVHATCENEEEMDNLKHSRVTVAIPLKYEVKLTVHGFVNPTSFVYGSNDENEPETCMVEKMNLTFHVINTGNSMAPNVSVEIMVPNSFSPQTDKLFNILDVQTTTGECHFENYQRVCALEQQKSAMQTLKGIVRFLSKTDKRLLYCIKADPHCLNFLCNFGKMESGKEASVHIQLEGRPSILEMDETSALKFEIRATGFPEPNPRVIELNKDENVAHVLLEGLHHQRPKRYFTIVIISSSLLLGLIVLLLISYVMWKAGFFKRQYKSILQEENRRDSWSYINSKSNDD
open conformation of integrin α4β1, sequence (P05556 21-798): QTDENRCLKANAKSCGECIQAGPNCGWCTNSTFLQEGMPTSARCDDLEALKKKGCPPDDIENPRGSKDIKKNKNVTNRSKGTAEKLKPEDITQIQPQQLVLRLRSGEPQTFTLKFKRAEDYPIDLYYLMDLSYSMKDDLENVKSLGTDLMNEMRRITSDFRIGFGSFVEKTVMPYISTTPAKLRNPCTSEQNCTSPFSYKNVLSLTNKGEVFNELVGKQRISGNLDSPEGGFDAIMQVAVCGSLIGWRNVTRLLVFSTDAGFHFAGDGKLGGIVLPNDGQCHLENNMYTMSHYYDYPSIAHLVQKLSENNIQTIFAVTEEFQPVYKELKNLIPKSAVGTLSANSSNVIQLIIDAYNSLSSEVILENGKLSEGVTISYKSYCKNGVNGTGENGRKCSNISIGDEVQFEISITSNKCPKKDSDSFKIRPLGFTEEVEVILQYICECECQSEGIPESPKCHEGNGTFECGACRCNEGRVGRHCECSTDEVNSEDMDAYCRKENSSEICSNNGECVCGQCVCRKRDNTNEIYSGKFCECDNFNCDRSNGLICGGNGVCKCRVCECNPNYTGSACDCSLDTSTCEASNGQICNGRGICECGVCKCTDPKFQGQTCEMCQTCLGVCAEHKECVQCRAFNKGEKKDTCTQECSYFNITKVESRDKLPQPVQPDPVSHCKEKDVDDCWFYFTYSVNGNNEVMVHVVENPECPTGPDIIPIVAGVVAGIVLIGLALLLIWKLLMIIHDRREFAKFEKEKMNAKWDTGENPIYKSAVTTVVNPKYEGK

With `Cc1ccccc1NC(=O)Nc1ccc(CC(=O)N[C@@H](CCCCNC(=O)/C=C/c2cccnc2)C(=O)N[C@@H](CCCC(=O)O)C(=O)NC2(C(N)=O)CCCCC2)cc1` [LLP2A], the “affinity for open conformation of integrin α4β1” value was “picomolar-affinity”.
